Reference: US8445674B2, “Heterocyclyl compounds” (Hoffmann-La Roche Inc, priority 2009, dated 2013)

Molecular target: T1, human chemokine receptor 2 isoform B (Homo sapiens, UniProt P41597)
T1 construct: host or cells: CHOK1-CCR2B-A5 cells (CHO-K1)
T1 sequence (P41597 1-360 isoform P41597-2): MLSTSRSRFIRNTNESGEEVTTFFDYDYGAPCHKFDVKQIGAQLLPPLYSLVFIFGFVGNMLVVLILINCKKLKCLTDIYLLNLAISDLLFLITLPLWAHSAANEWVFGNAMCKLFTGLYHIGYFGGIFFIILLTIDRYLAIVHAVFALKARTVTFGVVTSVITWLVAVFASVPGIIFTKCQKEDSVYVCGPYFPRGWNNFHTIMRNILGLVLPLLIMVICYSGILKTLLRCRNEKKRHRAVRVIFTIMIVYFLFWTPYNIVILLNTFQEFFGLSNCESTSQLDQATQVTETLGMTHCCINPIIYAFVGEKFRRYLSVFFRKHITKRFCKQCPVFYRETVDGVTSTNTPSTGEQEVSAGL
Assay: Calcium mobilization assay (FLIPR, antagonist activity against MCP-1)
Format: cell-based
Conditions: Ca mobilisation assay, CHOK1-CCR2B-A5 cells, inhibition of calcium increase induced by 20 nM MCP-1
Summary of the method: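 CHOK1 cells stably overexpressing human CCR2B, loaded with 4 μM Fluo-4 for 2 h at 30° C, compounds added and agonist signal read by FLIPR for 80 s. After 20-30 min at 30° C, 20 nM MCP-1 was added and fluorescence read again. IC50 is 50% inhibition of specific calcium increase (max minus basal).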

IC50 [nM] | Molecule
162 | O=C(/C=C/c1ccc(Cl)c(Cl)c1)N1CCC(=O)N(CCC(=O)N2CCC(O)(c3ccccc3)CC2)CC1 [Example 72, 1-[(E)-3-(3,4-Dichloro-phenyl)-acryloyl]-4-[3-(4-hydroxy-4-phenyl-piperidin-1-yl)-3-oxo-propyl)-[1,4]diazepan-5-one]
18 | C[C@@H]1C(=O)N(CCCC(=O)N2CCC3(CC3)[C@H](O)C2)[C@@H](C(N)=O)CN1C(=O)Nc1ccc(C(F)(F)F)c(Cl)c1 [Example 150, (3R,6R)-4-[4-((S)-4-Hydroxy-6-aza-spiro[2.5]oct-6-yl)-4-oxo-butyl]-6-methyl-5-oxo-piperazine-1,3-dicarboxylic acid 3-amide 1-[(3-chloro-4-trifluoromethyl-phenyl)-amide]]
310 | COC[C@H](CCC(=O)N1CCC2(CC2)[C@H](O)C1)N1CCN(c2ccc(C(F)(F)F)c(Cl)c2)[C@@H](C)C1=O [Example 132, (S)-4-(3-Chloro-4-trifluoromethyl-phenyl)-1-[(S)-4-((S)-4-hydroxy-6-aza-spiro[2.5]oct-6-yl)-1-methoxymethyl-4-oxo-butyl]-3-methyl-piperazin-2-one]
85 | C[C@H]1C(=O)N(CCCC(=O)N2CCC3(CC3)[C@H](O)C2)CCN1C(=O)Nc1ccc(Cl)cc1 [Example 27, (S)-4-[4-((S)-4-Hydroxy-6-aza-spiro[2.5]oct-6-yl)-4-oxo-butyl]-2-methyl-3-oxo-piperazine-1-carboxylic acid (4-chloro-phenyl)-amide]
2660 | O=C(/C=C/c1ccc(Cl)c(Cl)c1)N1CCC(=O)N(CCC(=O)N2CCC(O)CC2)CC1 [Example 1, 1-[(E)-3-(3,4-Dichloro-phenyl)-acryloyl]-4-[3-(4-hydroxy-piperidin-1-yl)-3-oxo-propyl]-[1,4]diazepan-5-one]
2750 | C[C@@H]1CN(CCCC(=O)N2CCC3(CC3)[C@H](O)C2)C(=O)C=CN1c1ccc(Cl)c(C(F)(F)F)c1 [Example 125, (R)-1-(4-Chloro-3-trifluoromethyl-phenyl)-4-[4-((S)-4-hydroxy-6-aza-spiro[2.5]oct-6-yl)-4-oxo-butyl]-2-methyl-1,2,3,4-tetrahydro-[1,4]diazepin-5-one]
965 | (S)-4-[4-((S)-4-Hydroxy-6-aza-spiro[2.5]oct-6-yl)-4-oxo-butyl]-2-methyl-3-oxo-piperazine-1-carboxylic acid (3-chloro-phenyl)-amide [Example 39]
411 | CC1(O)CCCN(C(=O)CN2CCN(C(=O)/C=C/c3ccc(Cl)c(Cl)c3)CCC2=O)C1 (racemic) [Example 100, (rac)-1-[(E)-3-(3,4-Dichloro-phenyl)-acryloyl]-4-[2-(3-hydroxy-3-methyl-piperidin-1-yl)-2-oxo-ethyl]-[1,4]diazepan-5-one]
18.1 | C[C@H]1C(=O)N(CCCC(=O)N2CCC3(CC3)[C@H](O)C2)CCN1C(=O)Nc1cccc(Cl)c1 [Example 26, (S)-4-[4-((S)-4-Hydroxy-6-aza-spiro[2.5]oct-6-yl)-4-oxo-butyl]-2-methyl-3-oxo-piperazine-1-carboxylic acid (3-chloro-phenyl)-amide]
583 | O=C(/C=C/c1ccc(Cl)c(Cl)c1)N1CCC(=O)N(C(CCO)C(=O)N2CCCC2)CC1 (racemic) [Example 5, rac-(1-[(E)-3-(3,4-Dichloro-phenyl)-acryloyl]-4-[3-hydroxy-1-(pyrrolidine-1-carbonyl)-propyl]-[1,4]diazepan-5-one)]
863 | COC(=O)C(CC(=O)N(C)C)N1CCN(C(=O)/C=C/c2ccc(Cl)c(Cl)c2)CCC1=O (racemic) [Example 8, rac-(2-{4-[(E)-3-(3,4-Dichloro-phenyl)-acryloyl]-7-oxo-[1,4]diazepan-1-yl}-N,N-dimethyl-succinamic acid methyl ester)]
2 | C[C@H]1C(=O)N(C[C@@H](O)CC(=O)N2CCC3(CC3)[C@H](O)C2)CCN1C(=O)Nc1ccc(OC(F)(F)F)c(Cl)c1 [Example 45, (S)-4-[(S)-2-hydroxy-4-((S)-4-hydroxy-6-aza-spiro[2.5]oct-6-yl)-4-oxo-butyl]-2-methyl-3-oxo-piperazine-1-carboxylic acid (3-chloro-4-trifluoromethoxy-phenyl)-amide]
1520 | CC1CCN(C(=O)CCN2CCN(C(=O)/C=C/c3ccc(Cl)c(Cl)c3)CCC2=O)CC1 [Example 85, 1-[(E)-3-(3,4-Dichloro-phenyl)-acryloyl]-4-[3-(4-methyl-piperidin-1-yl)-3-oxo-propyl]-[1,4]diazepan-5-one]
4.2 | C[C@H]1C(=O)N(C[C@H](O)CC(=O)N2CCC3(CC3)[C@H](O)C2)CCN1C(=O)Nc1ccc(OC(F)(F)F)c(Cl)c1 [Example 46, (S)-4-[(R)-2-hydroxy-4-((S)-4-hydroxy-6-aza-spiro[2.5]oct-6-yl)-4-oxo-butyl]-2-methyl-3-oxo-piperazine-1-carboxylic acid (3-chloro-4-trifluoromethoxy-phenyl)-amide]
2020 | O=C(/C=C/c1ccc(Cl)c(Cl)c1)N1CCC(=O)N(C(CO)CC(=O)N2CCCCC2)CC1 (racemic) [Example 6, rac-(1-[(E)-3-(3,4-Dichloro-phenyl)-acryloyl]-4-(1-hydroxymethyl-3-oxo-3-piperidin-1-yl-propyl)-[1,4]diazepan-5-one)]
157 | C[C@H]1C(=O)N([C@@H](CO)CCC(=O)N2CCC3(CC3)[C@H](O)C2)CCN1C(=O)Nc1ccc(C(F)(F)F)c(Cl)c1 [Example 146, (S)-4-[(R)-4-((S)-4-Hydroxy-6-aza-spiro[2.5]oct-6-yl)-1-hydroxymethyl-4-oxo-butyl]-2-methyl-3-oxo-piperazine-1-carboxylic acid (3-chloro-4-trifluoromethyl-phenyl)-amide]
62.2 | C[C@H]1C(=O)N(CCC(O)C(=O)N2CCC3(CC3)[C@H](O)C2)CCN1C(=O)Nc1ccc(C(F)(F)F)c(C(F)(F)F)c1 (stereo partly drawn) [Example 135, (S)-4-[(R,S)-3-Hydroxy-4-((S)-4-hydroxy-6-aza-spiro[2.5]oct-6-yl)-4-oxo-butyl]-2-methyl-3-oxo-piperazine-1-carboxylic acid (3,4-bis-trifluoromethyl-phenyl)-amide]
31.5 | C[C@H]1C(=O)N(CCCC(=O)N2CC[C@](C)(CO)[C@H](O)C2)CCN1C(=O)Nc1cccc(Cl)c1 (racemic) [Example 114, (S)-4-[4-((3SR,4RS)-3-Hydroxy-4-hydroxymethyl-4-methyl-piperidin-1-yl)-4-oxo-bulyl]-2-methyl-3-oxo-piperazine-1-carboxylic acid (3-chloro-phenyl)-amide]
708 | COC(=O)C(CC(=O)N1CCC2(CC2)[C@H](O)C1)N1CCN(C(=O)/C=C/c2cccc(Cl)c2)CCC1=O (stereo partly drawn) [Example 10]
1290 | O=C1CCN(C(=O)Nc2cccc(Cl)c2)CCN1CCCC(=O)N1CCC2(CC2)[C@H](O)C1 [Example 116, 4-[4-((S)-4-Hydroxy-6-aza-spiro[2.5]oct-6-yl)-4-oxo-butyl]-5-oxo-[1,4]diazepane-1-carboxylic acid (3-chloro-phenyl)-amide]
2.4 | C[C@H]1C(=O)N(C[C@@H](O)CC(=O)N2CCC3(CC3)[C@H](O)C2)CCN1C(=O)Nc1ccc(C(F)(F)F)c(C(F)(F)F)c1 [Example 48, (S)-4-[(S)-2-Hydroxy-4-((S)-4-hydroxy-6-aza-spiro[2.5]oct-6-yl)-4-oxo-butyl]-2-methyl-3-oxo-piperazine-1-carboxylic acid (3,4-bis-trifluoromethyl-phenyl)-amide]
